Patent US20240002397A1, “3-AMINO PYRROLIDINE AND PIPERIDINE MACROCYCLIC OREXIN RECEPTOR AGONISTS” (Merck Sharp & Dohme LLC, priority 2020, published 2024)

target: T1, human OX2R (Homo sapiens, UniProt O43614); test: IPOne (IP-1) orexin receptor agonist assay in CHO cells expressing human OX2R; conditions: CHO, hOX2R IP-One; percentage of mean max effect of a reference compound at 1 uM with 100% activity
T1 sequence (O43614 1-444): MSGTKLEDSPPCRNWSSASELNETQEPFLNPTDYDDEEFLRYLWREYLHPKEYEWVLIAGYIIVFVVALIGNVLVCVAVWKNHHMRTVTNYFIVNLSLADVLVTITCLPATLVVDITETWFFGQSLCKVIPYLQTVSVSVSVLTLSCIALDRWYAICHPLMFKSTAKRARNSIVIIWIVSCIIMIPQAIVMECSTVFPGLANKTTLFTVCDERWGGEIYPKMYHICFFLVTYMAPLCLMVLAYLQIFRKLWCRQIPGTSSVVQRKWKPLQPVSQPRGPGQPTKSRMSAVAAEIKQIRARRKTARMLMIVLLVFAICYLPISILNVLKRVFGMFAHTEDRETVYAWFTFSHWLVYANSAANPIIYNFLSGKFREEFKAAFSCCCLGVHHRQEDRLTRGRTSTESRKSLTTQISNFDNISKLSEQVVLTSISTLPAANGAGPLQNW

| SMILES | Emax |
| --- | --- |
| C[C@@H]1C[C@H](NS(C)(=O)=O)C2COC3CCC(CC3)c3nc(ccc3C(F)(F)F)OCCOC(=O)N21 (stereo partly shown) [Example 68, N-((2^1S,2^4S,5^2R,5^3S,5^5R)-5^5-methyl-6-oxo-1^3-(trifluoromethyl)-3,7,10-trioxa-1(2,6)-pyridina-5(2,1)-pyrrolidina-2(1,4)-cyclohexanacyclodecaphane-5^3-yl)methanesulfonamide] | 102% |
| C[C@@H]1C[C@H](NS(C)(=O)=O)C2COC3CCC(CC3)c3nc(ccc3C(F)(F)F)OCCCOC(=O)N21 (stereo partly shown) [Example 69, N-((2^1S,2^4S,5^2R,5^3S,5^5R)-5^5-methyl-6-oxo-1^3-(trifluoromethyl)-3,7,11-trioxa-1(2,6)-pyridina-5(2,1)-pyrrolidina-2(1,4)-cyclohexanacycloundecaphane-5^3-yl)methanesulfonamide] | 94.7% |
| COc1cc2nc(c1)C1CCC(CC1)OCC1[C@@H](NS(C)(=O)=O)C[C@@H](C)N1C(=O)OCCO2 (stereo partly shown) [Example 70, N-((2^1S,2^4S,5^2R,5^3S,5^5R)-1^4-methoxy-5^5-methyl-6-oxo-3,7,10-trioxa-1(2,6)-pyridina-5(2,1)-pyrrolidina-2(1,4)-cyclohexanacyclodecaphane-5^3-yl)methanesulfonamide] | 102% |
| COc1cc2nc(c1)C1CCC(CC1)OCC1[C@@H](NS(C)(=O)=O)C[C@@H](C)N1C(=O)OCCCO2 (stereo partly shown) [Example 71, N-((2^1S,2^4S,5^2R,5^3S,5^5R)-1^4-methoxy-5^5-methyl-6-oxo-3,7,11-trioxa-1(2,6)-pyridina-5(2,1)-pyrrolidina-2(1,4)-cyclohexanacycloundecaphane-5^3-yl)methanesulfonamide] | 102% |
| C[C@@H]1C[C@H](NS(C)(=O)=O)C2COC3CCC(CC3)c3ccc(OC(F)(F)F)c(n3)OCCOC(=O)N21 (stereo partly shown) [Example 72, N-((2^1S,2^4S,5^2R,5^3S,5^5R)-5^5-methyl-6-oxo-1^5-(trifluoromethoxy)-3,7,10-trioxa-1(2,6)-pyridina-5(2,1)-pyrrolidina-2(1,4)-cyclohexanacyclodecaphane-5^3-yl)methanesulfonamid] | 102% |
| C[C@@H]1C[C@H](NS(C)(=O)=O)C2COC3CCC(CC3)c3ccc(OC(F)(F)F)c(n3)OCCCOC(=O)N21 (stereo partly shown) [Example 73, N-((2^1S,2^4S,5^2R,5^3S,5^5R)-5^5-methyl-6-oxo-1^5-(trifluoromethoxy)-3,7,11-trioxa-1(2,6)-pyridina-5(2,1)-pyrrolidina-2(1,4)-cyclohexanacycloundecaphane-5^3-yl)methanesulfonamide] | 100% |
| COc1cc2nc(c1F)OCCCOC(=O)N1C(COC3CCC2CC3)[C@@H](NS(C)(=O)=O)C[C@H]1C (stereo partly shown) [Example 75, N-((2^1S,2^4S,5^2R,5^3S,5^5R)-1^4-fluoro-1^3-methoxy-5^5-methyl-6-oxo-3,7,11-trioxa-1(2,6)-pyridina-5(2,1)-pyrrolidina-2(1,4)-cyclohexanacycloundecaphane-5^3-yl)methane sulfonamide] | 97.2% |
| COc1ccc2nc1OCCCOC(=O)N1C(COC3CCC2CC3)[C@@H](NS(C)(=O)=O)C[C@H]1C (stereo partly shown) [Example 76, N-((2^1S,2^4S,5^2R,5^3S,5^5R)-1^5-methoxy-5^5-methyl-6-oxo-3,7,11-trioxa-1(2,6)-pyridina-5(2,1)-pyrrolidina-2(1,4)-cyclohexanacycloundecaphane-5^3-yl)methanesulfonamide] | 101% |
| CCOc1cc2nc(c1)C1CCC(CC1)OCC1[C@@H](NS(C)(=O)=O)C[C@@H](C)N1C(=O)OCCO2 (stereo partly shown) [Example 77, N-((2^1S,2^4S,5^2R,5^3S,5^5R)-1^4-ethoxy-5^5-methyl-6-oxo-3,7,10-trioxa-1(2,6)-pyridina-5(2,1)-pyrrolidina-2(1,4)-cyclohexanacyclodecaphane-5^3-yl)methanesulfonamide] | 99.5% |
| CCOc1cc2nc(c1)C1CCC(CC1)OCC1[C@@H](NS(C)(=O)=O)C[C@@H](C)N1C(=O)OCCCO2 (stereo partly shown) [Example 78, N-((2^1S,2^4S,5^2R,5^3S,5^5R)-1^4-ethoxy-5^5-methyl-6-oxo-3,7,11-trioxa-1(2,6)-pyridina-5(2,1)-pyrrolidina-2(1,4)-cyclohexanacycloundecaphane-5^3-yl)methanesulfonamide] | 100% |
| Cc1ccc2nc1C1CCC(CC1)OCC1[C@@H](NS(C)(=O)=O)C[C@@H](C)N1C(=O)OCCCO2 (stereo partly shown) [Example 80, N-((2^1S,2^4S,5^2R,5^3S,5^5R)-1^3,5^5-dimethyl-6-oxo-3,7,11-trioxa-1(2,6)-pyridina-5(2,1)-pyrrolidina-2(1,4)-cyclohexanacycloundecaphane-5^3-yl)methanesulfonamide] | 99.4% |
| C[C@@H]1C[C@H](NS(C)(=O)=O)C2COC3CCC(CC3)c3nc(c(F)cc3F)OCCCOC(=O)N21 (stereo partly shown) [Example 81, N-((2^1S,2^4S,5^2R,5^3S,5^5R)-1^3,1^5-difluoro-5^5-methyl-6-oxo-3,7,11-trioxa-1(2,6)-pyridina-5(2,1)-pyrrolidina-2(1,4)-cyclohexanacycloundecaphane-5^3-yl)methanesulfonamide] | 104% |
| COC[C@@H]1C[C@H](NS(C)(=O)=O)C2COC3CCC(CC3)c3cc(C(F)(F)F)cc(n3)OCCCOC(=O)N21 (stereo partly shown) [Example 83, N-((2^1S,2^4S,5^2R,5^3S,5^5S)-5^5-(methoxymethyl)-6-oxo-1^4-(trifluoromethyl)-3,7,11-trioxa-1(2,6)-pyridina-5(2,1)-pyrrolidina-2(1,4)-cyclohexanacycloundecaphane-5^3-yl)methanesulfonamide] | 102% |
| COC[C@@H]1C[C@H](NS(C)(=O)=O)C2COC3CCC(CC3)c3cc(C(F)(F)F)cc(n3)OCCOC(=O)N21 (stereo partly shown) [Example 84, N-((2^1S,2^4S,5^2R,5^3S,5^5S)-5^5-(methoxymethyl)-6-oxo-1^4-(trifluoromethyl)-3,7,10-trioxa-1(2,6)-pyridina-5(2,1)-pyrrolidina-2(1,4)-cyclohexanacyclodecaphane-5^3-yl)methanesulfonamide] | 101% |
| COC[C@@H]1C[C@H](NS(C)(=O)=O)C2COC3CCC(CC3)c3cc(C(F)F)cc(n3)OCCCOC(=O)N21 (stereo partly shown) [Example 85, N-((2^1S,2^4S,5^2R,5^3S,5^5S)-14-(difluoromethyl)-5^5-(methoxymethyl)-6-oxo-3,7,11-trioxa-1(2,6)-pyridina-5(2,1)-pyrrolidina-2(1,4)-cyclohexanacycloundecaphane-5^3-yl)methanesulfonamide] | 102% |
| C[C@@H]1C[C@H](NS(C)(=O)=O)C2COC3CCC(CC3)c3cc(C(F)F)cc(n3)OCCCOC(=O)N21 (stereo partly shown) [Example 86, N-((2^1S,2^4S,5^2R,5^3S,5^5R)-1^4-(difluoromethyl)-5^5-methyl-6-oxo-3,7,11-trioxa-1(2,6)-pyridina-5(2,1)-pyrrolidina-2(1,4)-cyclohexanacycloundecaphane-5^3-yl)methanesulfonamide] | 101% |
| COC[C@@H]1C[C@H](NS(C)(=O)=O)C2COC3CCC(CC3)c3nc(ccc3C(F)(F)F)OCCOC(=O)N21 (stereo partly shown) [Example 87, N-((2^1S,2^4S,5^2R,5^3S,5^5S)-5^5-(methoxymethyl)-6-oxo-1^3-(trifluoromethyl)-3,7,10-trioxa-1(2,6)-pyridina-5(2,1)-pyrrolidina-2(1,4)-cyclohexanacyclodecaphane-5^3-yl)methanesulfonamide] | 100% |
| COc1cc2nc(c1)[C@H]1CC[C@H](CC1)OC[C@H]1[C@@H](NS(C)(=O)=O)C[C@@H](C)N1C(=O)OCCCN2 [Example 88, N-((2^1S,2^4S,5^2R,5^3S,5^5R)-1^4-methoxy-5^5-methyl-6-oxo-3,7-dioxa-11-aza-1(2,6)-pyridina-5(2,1)-pyrrolidina-2(1,4)-cyclohexanacycloundecaphane-5^3-yl)methanesulfonamide] | 103% |
| C[C@@H]1C[C@H](NS(C)(=O)=O)C2COC3CCC(CC3)c3cc(C(F)(F)F)cc(n3)N(C)CCCOC(=O)N21 (stereo partly shown) [Example 89, N-((2^1S,2^4S,5^2R,5^3S,5^5R)-5^5,1^1-dimethyl-6-oxo-1^4-(trifluoromethyl)-3,7-dioxa-11-aza-1(2,6)-pyridina-5(2,1)-pyrrolidina-2(1,4)-cyclohexanacycloundecaphane-5^3-yl)methanesulfonamide] | 101% |
| C[C@@H]1C[C@H](NS(C)(=O)=O)C2COC3CCC(CC3)c3cccc(n3)NCCCOC(=O)N21 (stereo partly shown) [Example 90, N-((2^1S,2^4S,5^2R,5^3S,5^5R)-5^5-methyl-6-oxo-3,7-dioxa-11-aza-1(2,6)-pyridina-5(2,1)-pyrrolidina-2(1,4)-cyclohexanacycloundecaphane-5^3-yl)methanesulfonamide] | 101% |
| C[C@@H]1C[C@H](NS(C)(=O)=O)C2COC3CCC(CC3)c3cccc(n3)N(C)CCCOC(=O)N21 (stereo partly shown) [Example 91, N-((2^1S,2^4S,5^2R, 5^3S,5^5R)-5^5,^11-dimethyl-6-oxo-3,7-dioxa-11-aza-1(2,6)-pyridina-5(2,1)-pyrrolidina-2(1,4)-cyclohexanacycloundecaphane-5^3-yl)methanesulfonamide] | 102% |
| C[C@@H]1C[C@H](NS(C)(=O)=O)C2COC3CCC(CC3)c3ccc(F)c(n3)NCCOC(=O)N21 (stereo partly shown) [Example 92, N-((2^1S,2^4S,5^2R,5^3S,5^5R)-1^5-fluoro-5^5-methyl-6-oxo-3,7-dioxa-10-aza-1(2,6)-pyridina-5(2,1)-pyrrolidina-2(1,4)-cyclohexanacyclodecaphane-5^3-yl)methanesulfonamide] | 98.9% |
